Reference: article PMC11815855, “Exploring the Structure–Activity Relationships of Albumin-Targeted Picoplatin-Based Platinum(IV) Prodrugs” (Inorganic Chemistry, 2025)
Marks after values point to notes of the source that are not given here.

Tests used:
[1] = tested on: A2780/wt ovarian cancer cells; assay: MTT-based cell viability assay, A2780/wt, 72 h; parameters: species or system human; conditions: 72 h drug exposure, means of independent experiments
Excerpt: (§1) For the cell culture assays, the human ovarian model A2780/wt and its corresponding cisplatin-resistant subline A2780/cis (both purchased from Sigma and cultured in RPMI1640 medium), the human colorectal cancer model HCT116 (cultured in McCoy′s medium), and the murine (Balb/c) colorectal cancer model CT26 (cultured in DMEM/F-12 (1:1) medium) were used. The colon cancer models were purchased from the American Type Culture Collection (ATCC). The media were supplemented with 10% FCS (purchased from PAA Linz, Austria). To maintain drug resistance of A2780/cis, the subline was cultivated under continuous selection pressure (1 μM cisplatin). The selection drug was removed 1 week before the experiments were performed. Cell cultures were maintained at 37 °C in humidified atmosphere containing 5% CO2. All cultures were free of antibiotics and regularly checked for mycoplasma contamination. All cell culture media and reagents were purchased from Sigma-Aldrich Austria. All investigated drugs were dissolved in either water (oxaliplatin, carboplatin) or DMF before further dilution in cell culture medium. DMF concentrations were always below 0.5%.
(§2) Subsequently, the cells were incubated with the tested compounds in rising concentrations. […] The received data were visualized as dose–response curves by Graph Pad Prism 5 software (Graph Pad software, USA).

CT26 colon cancer cells [2] = assay: MTT-based cell viability assay, CT26, 72 h; parameters: species or system murine; conditions: 72 h drug exposure
Excerpt: as §1, §2

[3] = tested on: A2780/cis ovarian cancer cells; assay: MTT-based cell viability assay, A2780/cis (cisplatin-resistant), 72 h; parameters: species or system human; conditions: for IC50: 72 h drug exposure, cisplatin-resistant subline, means of independent experiments; for IC50 / IC50 in A2780/cis compared to A2780/wt: MTT-based assay; for IC50 in A2780/cis compared to A2780/wt / RF (resistance factor): 72 h; for RF (resistance factor): fold-change between IC50 values of A2780/cis:A2780/wt
Excerpt: as §1, §2

[4] = tested on: HCT116 colon cancer cells; assay: Colony formation (clonogenic) assay, HCT116, 7 days; format: cell-based, human; conditions: 7 days drug exposure, clonogenic assay
Excerpt: as §1
(§3) Then, cells were exposed to the indicated drugs in rising concentrations. After 7 days, the cells were fixed with methanol for 20 min at 4 °C and stained with crystal violet 5 (0.01% in PBS). The fluorescence of the crystal violet was detected by the Typhoon scanner (Typhoon TRIO Variable Mode Imager, GE Healthcare Life Sciences) after excitation by the red laser (633 nm). Quantification was done with ImageJ software.

[5] = Interaction of platinum(II) complexes with 10 equiv GSH, NMR; format: physicochemical; conditions: 1 mM complex, 10% D2O/90% PBS pH 7.4, 37 °C
Protocol: The amount of remaining platinum(II) complex was monitored via ^1H NMR spectroscopy and, particularly for ^15N-cisplatin, via [^1H, ^15N] heteronuclear single quantum coherence (HSQC) NMR spectroscopy (Figure 1).[47]
(§4) An 1 mM solution of Pt compound was incubated in a mixture of 90% PB or PBS (150 mM, pH 7.4) and 10% D2O at 37 °C with and without the addition of 10 equiv GSH. The reaction was monitored with ^1H or [^1H, ^15N] […] The reference spectrum was shifted with a value of −0.5 ppm compared to the original ppm value calibrated to D2O before overlay with a spectrum at a single time point. In case of ^15N-cisplatin, the cross-peak of the parental complex in [^1H, ^15N] HSQC at time point 0 h was used as reference, and spectral overlay was achieved by shifting the 2D spectra at all given time points (2, 4, 6, and 8 h) with vertical steps of +14 ppm compared to the original ^15N NMR ppm value of the parental complex.

[6] = Stability of platinum(II) complexes in PBS or PB, NMR; format: physicochemical; conditions: 1 mM, pH 7.4, 37 °C, 8 h incubation, no GSH
Protocol: as §4

[7] = tested on: HCT116 colon cancer cells; assay: MTT-based cell viability assay, HCT116, 72 h; parameters: species or system human; conditions: 72 h drug exposure
Excerpt: as §1, §2

CT26 colon cancer cells [8] = assay: Colony formation (clonogenic) assay, CT26, 7 days; format: cell-based, murine; conditions: 7 days drug exposure
Excerpt: as §1, §3

CT26 tumors = assay: Anticancer activity in vivo, CT26-bearing Balb/c mice; conditions: i.v. on days 3 and 10, dose equimolar to 20 mg/kg picoplatin
Protocol: Ten-week-old Balb/c mice were purchased from Envigo Laboratories (San Pietro al Natisone, Italy). […] Animals were controlled for distress development every day, and tumor size was assessed regularly by caliper measurement. Tumor volume was calculated using the formula: (length × width^2)/2.
CT26 cells (5 × 10^5 in serum-free medium) were injected subcutaneously into the right flank of male Balb/c mice. Therapy was started when tumor nodules were palpable (day 3). […] Mice were sacrificed by cervical dislocation in the case of a tumor length >20 mm, tumor ulceration, or other signs for distress.

[9] = Reduction of platinum(IV)-succinimide complexes with 10 equiv GSH, UHPLC; format: physicochemical; conditions: 1 mM, 150 mM PB pH 7.4, 20 °C, 6 h
Excerpt: It is well-known that platinum(IV) complexes derived from, e.g., oxaliplatin or carboplatin, bearing leaving groups other than chlorido ligands, have distinctly slower reduction rates compared to cisplatin(IV) analogs.[54] This can be explained by a bridging interaction between the chlorido ligands and the reducing agent, which facilitates electron transfer to the platinum center.[55] […] The reductive behavior was also investigated in the presence of 10 equiv GSH in coherence with the above investigated interactions of platinum(II) with GSH (Figure S8).
(§5) PB (150 mM, pH 7.4) containing 1 mM Pt compound was incubated at 20 °C with and without the addition of 10 equiv L-ascorbic acid or reduced GSH. The reaction was monitored on a Thermo Scientific Dionex UltiMate 3000 UHPLC-system using a Waters Acquity UPLC BEH C18 1.7 μm, 3.0 × 50 mm column. Milli-Q water containing 0.1% formic acid and acetonitrile containing 0.1% formic acid were used as eluents. A gradient of 5–95% over 5 min was used with a flow of 0.6 mL/min. To evaluate the reaction process, we used the peak area of the parental complex.

[10] = Reduction kinetics of platinum(IV)-succinimide complexes with AA, UHPLC; format: physicochemical; conditions: 1 mM, 10 equiv AA, 150 mM PB pH 7.4, 20 °C, 6 h
Protocol: Platinum(IV) prodrugs need to be reduced in the tumor environment to release the cytotoxic platinum(II) complexes. Thus, the reduction properties of Pico-Succ, PicoCarbo-Succ, and PicoOxali-Succ were investigated. As mentioned above, succinimide complexes were used for these studies to avoid competitive hydrolysis of the maleimide moiety. All platinum(IV)-succinimide complexes were incubated in both the absence and presence of a 10-fold excess L-ascorbic acid (AA) in PB at pH 7.4 and 20 °C over 6 h. The amount of remaining intact platinum(IV) complex at given time points was measured via ultrahigh performance liquid chromatography (UHPLC), as shown in Figure 2. Pico-Succ was reduced extremely fast, with only traces of the original complex left in the first measurement after ∼5 min of incubation. Even with equimolar amounts of AA, 90% of Pico-Succ was already reduced after ∼5 min (Figure S6). This level of reductive instability is exceptionally high, even when compared to the “fast” reducing cisplatin(IV) prodrugs, which show a complete conversion after ∼10 h in the presence of 10 equiv AA.[41],[53]
as §5

albumin = albumin (Bos taurus, UniProt P02769); assay: Albumin binding and stability in phosphate-buffered FCS, SEC-ICP-MS; conditions: 50 μM in FCS (150 mM PB, pH 7.4), 37 °C, over 25 h; 195Pt only in LMWF
Protocol: FCS was purchased from Sigma-Aldrich and buffered with 150 mM phosphate pH 7.4 in order to guarantee a stable pH. The platinum(IV) complexes were dissolved in 150 mM PB (pH 7.4) at a concentration of 5 mM and diluted 1:100 in buffered serum to obtain a final concentration of 50 μM. […] Between each sample, a pure water blank was measured. […] Oxygen (purity 5.5, Messer Austria GmbH, Gumpoldskirchen, Austria) was used as the reaction gas.

albumin, sequence (P02769 25-607): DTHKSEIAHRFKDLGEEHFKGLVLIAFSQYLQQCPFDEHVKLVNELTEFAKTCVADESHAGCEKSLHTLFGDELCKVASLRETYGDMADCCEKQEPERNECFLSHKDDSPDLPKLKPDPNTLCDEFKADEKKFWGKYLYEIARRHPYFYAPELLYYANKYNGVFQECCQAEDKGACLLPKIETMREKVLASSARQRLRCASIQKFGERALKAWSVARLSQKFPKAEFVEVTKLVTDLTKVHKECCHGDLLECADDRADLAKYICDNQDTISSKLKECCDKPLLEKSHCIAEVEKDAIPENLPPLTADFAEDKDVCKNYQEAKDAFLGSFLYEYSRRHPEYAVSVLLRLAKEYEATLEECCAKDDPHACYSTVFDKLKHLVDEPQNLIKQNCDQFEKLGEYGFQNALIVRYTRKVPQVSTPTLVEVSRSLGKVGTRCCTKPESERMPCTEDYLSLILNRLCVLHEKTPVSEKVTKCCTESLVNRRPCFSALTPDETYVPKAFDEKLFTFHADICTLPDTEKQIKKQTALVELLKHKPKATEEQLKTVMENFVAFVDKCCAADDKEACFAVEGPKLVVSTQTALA

Structure (SMILES)	IC50 [1]	IC50 (CT26 colon cancer cells [2])	IC50 [3]	IC50 [4]	intact platinum(II) complex left after 8 h with GSH ([5]; 8 h, 1H NMR)	complex left in 10% D2O/90% PBS [6]	IC50 [7]	IC50 (CT26 colon cancer cells [8])	impact on tumor growth (CT26 tumors)	reduction with 10 equiv GSH over 6 h [9]	intact platinum(IV) complex left after 6 h with AA [10]	albumin conjugation (albumin)	IC50 in A2780/cis compared to A2780/wt [3]	RF (resistance factor) [3]	complex left in 10% D2O/90% PB [6]	platinum(II) complex left after 2 h with GSH ([5]; 2 h, [1H,15N] HSQC NMR)	platinum(II) complex reacted with GSH after 4 h ([5]; 4 h)
Cc1ccccn1.N.O=C1[O][Pt][O]C(=O)C12CCC2 [PicoCarbo, (SP-4-4)[(Ammine)(cyclobutane-1,1-dicarboxylato)(2-methylpyridine)platinum(II)]]	> 100 µM	74.5 µM	> 100 µM	90 µM	~90%	> 95%	> 100 µM	26.3 µM	–	–	–	–	–	–	–	–	–
CC(=O)[O][Pt]1([O]C(=O)NCCN2C(=O)C=CC2=O)[O]C(=O)C2(CCC2)C(=O)[O]1.Cc1ccccn1.N [PicoCarbo-Mal, (OC-6-21)[Acetato(ammine)(cyclobutane-1,1-dicarboxylato)(1-(2-isocyanatoethyl)-1H-pyrrole-2,5-dione)(2-methylpyridine)platinum(IV)]]	–	–	–	–	–	–	–	–	significantly inhibited tumor growth	–	–	–	–	–	–	–	–
CC(=O)[O][Pt]1([O]C(=O)NCCN2C(=O)CCC2=O)[O]C(=O)C2(CCC2)C(=O)[O]1.Cc1ccccn1.N [PicoCarbo-Succ, (OC-6-21)[Acetato(ammine)(cyclobutane-1,1-dicarboxylato)(1-(2-isocyanatoethyl)pyrrolidine-2,5-dione)(2-methylpyridine)platinum(IV)]]	> 100 µM	> 100 µM	> 100 µM	> 100 µM	–	–	> 100 µM	> 100 µM	–	no notable reduction	~90%	–	–	–	–	–	–
CC(=O)[O][Pt]1([O]C(=O)NCCN2C(=O)CCC2=O)[O]C(=O)C(=O)[O]1.Cc1ccccn1.N [PicoOxali-Succ, (OC-6-21)[Acetato(ammine)(1-(2-isocyanatoethyl)pyrrolidine-2,5-dione)(2-methylpyridine)(oxalato)platinum(IV)]]	> 100 µM	> 100 µM	> 100 µM	> 100 µM	–	–	> 100 µM	> 100 µM	–	no notable reduction	~70%	no albumin conjugation	–	–	–	–	–
Cc1ccccn1.N.O=C1[O][Pt][O]C1=O [PicoOxali]	33.4 µM	33.7 µM	46 µM	15.8 µM	–	readily degraded	> 100 µM	7.26 µM	–	–	–	–	1.4 fold	1.4^ns	> 90%	–	–
[15NH3].[15NH3].[Cl][Pt][Cl] [^15N-cisplatin, cis-[PtCl2(^15NH3)2]]	–	–	–	–	–	> 95%	–	–	–	–	–	–	–	–	–	~20%	nearly complete reaction
N.N.[Cl][Pt][Cl] [cisplatin, reference compound]	1.54 µM	2.17 µM	7.81 µM	0.82 µM	–	–	3.15 µM	0.46 µM	–	–	–	–	5.1 fold	5.1****	–	–	–
